Consider five molecules from patent publication US9051275B2, “4-[-2-[[5-methyl-1-(2-naphtalenyl)-1H-pyrazol-3-yl]oxy]ethyl]morpholine hydrochloride polymorphs and solvates” (Laboratories Del Dr. Esteve, S.A., priority 2010, dated 2015).

One series deals with sigma 2 (σ-2) site (Homo sapiens, UniProt Q5BJF2). Particulars: cited from earlier work.
In another series the target is sigma 1 (σ-1) site (Homo sapiens, UniProt Q99720). The note with it: cited from earlier work.
Series [1] is described as follows: Solubility of P027 in different solvents at room temperature (visual, successive solvent additions). The note with it: thermodynamic from solid. The format is physicochemical. The method, then: In order to plan the crystallization screening, […] table 6 using the following methodology (table 7): […] solvent and successive additions (initially 0.2 mL and finally 0.5 mL) of solvent until the solid was completely dissolved or up to a maximum of 8 mL were performed. After each solvent addition the suspension was vigorously stirred for 10-15 minutes and visually inspected to determine if the solid was completely dissolved.

Series [2] in a line: Descriptive solubility of the P027 compound. It is filed as physicochemical.
Series [3] can be described thus: Dissolution and absorption profile in vivo compared with the related base. Particulars: compared with its related base.
For series [4] the following is noted: drying for 4 hours at 60° C., 80° C. and 100° C.
Series [5] can be described thus: Grinding of P027 phase I with catalytic solvent in a ball mill, PXRD analysis. It is filed as physicochemical. The method, then:
Approximately 40 mg of P027 phase I were transferred to a ball mill container together with catalytic quantities of the relevant solvent (three drops). The P027 phase I and the solvent were grinded at a maximum frequency of 30 s^−1 for 30 minutes (see Table 23).
The solid samples obtained were analyzed by PXRD. […] FIG. 18 illustrates the PXRD pattern of a phase I form obtained from grinding P027 together with dichloromethane.

Series [6] is described as follows: Pressure: tablets of P027 phase I in a hydraulic press, PXRD analysis. It is filed as physicochemical. The method, then:
Tablets of P027 phase I were prepared in a hydraulic press at three different pressures (5, 7.5 and 10 tons) for three different times (5, 30 and 90 minutes) [see Table 24].
The solid samples obtained were analyzed by PXRD. […] FIG. 19 illustrates the PXRD pattern of a phase I form obtained by applying a pressure of […] to P027 for 90 minutes.

Series [7] is described as follows: 1H NMR check of the stability of the salt in phase I samples. The format is physicochemical. The note with it: several samples of phase I from different crystallizations. The method, then:
In addition, several samples of phase I were analyzed by ^1H NMR in order to check the stability of the salt.

Another series has as its target sigma-1 (σ-1) receptor (Homo sapiens, UniProt Q99720). The note with it: cited from earlier work.
The conditions of series [8]: treatment and prevention of chronic and acute pain, particularly neuropathic pain; cited from earlier work.

sigma 2 (σ-2) site, sequence (Q5BJF2 whole entry): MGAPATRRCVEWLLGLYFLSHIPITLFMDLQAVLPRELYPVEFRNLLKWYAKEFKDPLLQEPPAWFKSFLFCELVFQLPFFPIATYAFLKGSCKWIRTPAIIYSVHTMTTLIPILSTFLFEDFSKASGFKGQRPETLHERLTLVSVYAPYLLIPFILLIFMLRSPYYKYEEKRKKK
sigma-1 (σ-1) receptor, sequence (Q99720 whole entry): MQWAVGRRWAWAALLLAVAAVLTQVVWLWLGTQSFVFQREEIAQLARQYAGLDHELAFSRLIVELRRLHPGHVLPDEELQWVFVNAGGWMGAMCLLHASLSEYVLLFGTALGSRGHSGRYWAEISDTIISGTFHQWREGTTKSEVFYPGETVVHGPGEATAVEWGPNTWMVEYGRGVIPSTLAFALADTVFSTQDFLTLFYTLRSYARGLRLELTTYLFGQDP
sigma 1 (σ-1) site, sequence (Q99720 whole entry): as above

Consider SKF 10047, for which the “affinity for the sigma 2 (σ-2) site” value at sigma 2 (σ-2) site was “micromolar”. For the same molecule, the “affinity for the sigma 1 (σ-1) site” value at sigma 1 (σ-1) site is “nanomolar”.
For the molecule `Cc1cc(OCCN2CCOCC2)nn1-c1ccc2ccccc2c1.Cl` [P027, 4-[2-[[5-methyl-1-(2-naphthalenyl)-1H-pyrazol-3-yl]oxy]ethyl]morpholine hydrochloride], the solubility (as a rule, how much of the substance goes into solution per volume) in series [1] (organic solvent or mixture, 1,1,1-Trichloroethane, room temperature) was under 1200 µg/mL; in [1] (organic solvent or mixture, 1,2-Dichloroethane, room temperature), 15000 to 25000 µg/mL; in series [1] (organic solvent or mixture, 2-Butanol, solid was dissolved at 60° C., left at room temperature, no solid observed), 3000 to 4000 µg/mL; in [1] (organic solvent or mixture, 3-Pentanone, solid was dissolved at 80° C., left at room temperature, no solid observed), 1000 to 2000 µg/mL; in series [1] (organic solvent or mixture, Acetone, room temperature), 4000 to 5000 µg/mL; in series [1] (organic solvent or mixture, Acetonitrile, solid was dissolved at 60° C., left at room temperature, no solid observed) it was 10000 to 20000 µg/mL. The solubility in series [1] (organic solvent or mixture, Butyl amine, room temperature) was over 50000 µg/mL; in series [1] (organic solvent or mixture, Chlorobenzene, room temperature) it was under 1200 µg/mL; in series [1] (organic solvent or mixture, Chloroform, room temperature), over 50000 µg/mL; in series [1] (organic solvent or mixture, Cyclohexane, room temperature), under 1200 µg/mL; in series [1] (organic solvent or mixture, Dichloromethane, room temperature) it was over 50000 µg/mL; in series [1] (organic solvent or mixture, Diethoxymethane, room temperature), under 1200 µg/mL. Further, the solubility in series [1] (organic solvent or mixture, Diisopropyl ether, room temperature) is under 1200 µg/mL; in series [1] (organic solvent or mixture, Dimethoxymethane, room temperature) it was under 1200 µg/mL; in series [1] (organic solvent or mixture, Dimethylcarbonate, solid was dissolved at 80° C., left at room temperature, no solid observed) it was 1000 to 2000 µg/mL; in series [1] (organic solvent or mixture, Dimethylformamide, room temperature), over 50000 µg/mL; in [1] (organic solvent or mixture, Dimethylsulfoxide, room temperature), over 50000 µg/mL; in [1] (organic solvent or mixture, Dioxane, solid was dissolved at 80° C., left at room temperature, no solid observed) it was 1000 to 2000 µg/mL. Besides, the solubility is 15000 to 25000 µg/mL in series [1] (organic solvent or mixture, Ethanol, room temperature); under 1200 µg/mL in [1] (organic solvent or mixture, Ethyl acetate, room temperature); under 1200 µg/mL in [1] (organic solvent or mixture, Isobutyl acetate, room temperature); 4000 to 5000 µg/mL in series [1] (organic solvent or mixture, Isopropanol, solid was dissolved at 60° C., left at room temperature, no solid observed); under 1200 µg/mL in [1] (organic solvent or mixture, Isopropyl acetate, room temperature); over 50000 µg/mL in series [1] (organic solvent or mixture, Methanol, room temperature). The solubility in series [1] (organic solvent or mixture, Methyl acetate, room temperature) is under 1200 µg/mL; in series [1] (organic solvent or mixture, Methyl ethyl ketone, solid was dissolved at 60° C., left at room temperature, no solid observed), 2000 to 4000 µg/mL; in [1] (organic solvent or mixture, Methyl isobutyl ketone, room temperature) it was under 1200 µg/mL; in series [1] (organic solvent or mixture, Methyl tert-butyl ether, room temperature), under 1200 µg/mL; in [1] (organic solvent or mixture, N,N-Dimethylacetamide, room temperature) it was 25000 to 50000 µg/mL; in [1] (organic solvent or mixture, Nitromethane, room temperature), 25000 to 50000 µg/mL. The solubility was under 1200 µg/mL in series [1] (organic solvent or mixture, Propyl acetate, room temperature); 25000 to 50000 µg/mL in series [1] (organic solvent or mixture, Pyridine, room temperature); under 1200 µg/mL in [1] (organic solvent or mixture, Tetrahydrofuran, room temperature); under 1200 µg/mL in series [1] (organic solvent or mixture, Toluene, room temperature); under 1200 µg/mL in series [1] (organic solvent or mixture, Triethylamine, room temperature); under 1200 µg/mL in series [1] (organic solvent or mixture, Xylene, room temperature). The solubility in [1] (organic solvent or mixture, n-Butanol, solid was dissolved at 60° C., left at room temperature, no solid observed) was 5000 to 10000 µg/mL; in series [1] (organic solvent or mixture, n-Heptane, room temperature), under 1200 µg/mL; in [1] (organic solvent or mixture, n-Hexane, room temperature), under 1200 µg/mL; in [1] (Water, room temperature) it was over 50000 µg/mL. In series [2] (1N hydrochloric acid), the “solubility in 1N hydrochloric acid” value is “freely soluble”. Moreover, the “solubility in 1N sodium hydroxide” value in series [2] (1N sodium hydroxide) is given as “practically insoluble”. For the same molecule, the solubility in acetone entry in [2] (acetone) is “slightly soluble”. Besides, the “solubility in dimethyl sulphoxide” value in series [2] (dimethyl sulphoxide) is reported as “freely soluble”. In addition, the solubility in ethanol entry in series [2] (ethanol) is “sparingly soluble”. The “solubility in ethyl acetate” value in series [2] (ethyl acetate) is “practically insoluble”. The solubility in methanol entry in [2] (methanol) is recorded as “freely soluble”. Further, in series [2] (water), the solubility in water entry was “very soluble”. Further, the “dissolution and absorption profile in vivo” value in [3] is “better dissolution and absorption profile in vivo than its related base”.
For the molecule `C1COCCO1.Cc1cc(OCCN2CCOCC2)nn1-c1ccc2ccccc2c1.Cl` [dioxane solvate, 4-[2-[[5-methyl-1-(2-naphthalenyl)-1H-pyrazol-3-yl]oxy]ethyl]morpholine hydrochloride solvate with dioxane], in series [4], the “solid form after drying (PXRD)” value was “transformation to Phase I was observed”.
With `Cc1cc(OCCN2CCOCC2)nn1-c1ccc2ccccc2c1.Cl` [P027 phase I, 4-[2-[[5-methyl-1-(2-naphthalenyl)-1H-pyrazol-3-yl]oxy]ethyl]morpholine hydrochloride phase I crystalline form], the “phase stability after grinding (PXRD)” value was “stable after grinding” in [5] (ball mill, three drops of solvent (Table 23), 30 s^-1 for 30 minutes) and “consistent with the standard phase I PXRD pattern demonstrating the phase stability” in series [5] (grinding together with dichloromethane (FIG. 18)). Moreover, the “phase stability under pressure (PXRD)” value was “stable under pressure” in series [6] (5, 7.5 and 10 tons for 5, 30 and 90 minutes); “consistent with the standard phase I PXRD pattern demonstrating the phase stability” in [6] (pressure of 30 tons for 90 minutes (FIG. 19)). For the same molecule, the “stability of the salt (1H NMR)” value in series [7] was “no signs of the lost of HCl or decomposition”.
With `Cc1cc(OCCN2CCOCC2)nn1-c1ccc2ccccc2c1` [4-[2-[[5-methyl-1-(2-naphthalenyl)-1H-pyrazol-3-yl]oxy]ethyl]morpholine], the “sigma-1 (σ-1) receptor antagonism, selectivity” value at sigma-1 (σ-1) receptor is listed as “highly selective sigma-1 (σ-1) receptor antagonist”. Also, in series [8], the analgesic activity result was “strong analgesic activity”.
